Results published in patent US10457707B2, “Substituted urea depsipeptide analogs as activators of the CLPP endopeptidase” (priority 2015, dated 2019).
≈ marks a conversion by molar mass, not a printed value. Like-named read-outs stand apart in the source and are kept apart here. *1 amine or outer side, *2 acyl side, *3 side chain or, on linkers, in order; H or OH if unused. Where a SMILES comes first, the peptide text is derived from it. Bridges are numbered along the chain shown (N, C = ends). [ ]: non-standard residue; d: D form. The star is where a group is joined. ξ: configuration not given here. Phe(3,5-F2) = N[C@@H](Cc1cc(F)cc(F)c1)C(=O)O; NH(4-OCF3-phenyl) = FC(F)(F)Oc1ccc(N*)cc1; Morpholine(3S-CO) = O=C(O)[C@@H]1COCCN1; Pro(4S-Me) = C[C@@H]1CN[C@H](C(=O)O)C1; Pro(4R-Me) = C[C@H]1CN[C@H](C(=O)O)C1; ξPro(4R-OH) = O=C(O)C1C[C@@H](O)CN1; NMeaThr = CN[C@H](C(=O)O)[C@H](C)O; ξPro(4R-Me) = C[C@H]1CNC(C(=O)O)C1; NMeT = CN[C@H](C(=O)O)[C@@H](C)O; NH(4-Me-phenyl) = Cc1ccc(N*)cc1; aThr = C[C@H](O)[C@H](N)C(=O)O; Pip = O=C(O)[C@@H]1CCCCN1; NMeA = CN[C@@H](C)C(=O)O; X1 = N#Cc1cc(N*)ccc1F; CO = O=C([*:1])[*:2]; ξP = O=C(O)C1CCCN1

Assays:
Sa-ClpP = target: T1, Sa-ClpP (Staphylococcus aureus, UniProt Q2G036); assay: ADEP displacement fluorescence polarization assay (FP probe ADEP 2591); assay type: binding
T1 construct: made in house; host or cells: E. coli BL21(DE3)
T1 sequence (Q2G036 1-195): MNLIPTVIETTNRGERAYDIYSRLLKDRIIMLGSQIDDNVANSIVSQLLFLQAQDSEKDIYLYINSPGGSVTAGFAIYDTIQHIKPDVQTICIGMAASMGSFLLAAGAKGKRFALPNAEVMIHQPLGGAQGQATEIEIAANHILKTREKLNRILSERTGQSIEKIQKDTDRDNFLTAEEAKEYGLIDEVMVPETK
How it was run: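 Probe displacement was measured in mP after compounds sat 120 min at room temperature with pre-equilibrated (1 h) Sa-ClpP (15 μM) and ADEP 2591 FP probe (50 nM) in pH 8.0 Tris-HCl with 2% DMSO. Data were scaled between DMSO and 200 μM ADEP 2378 and fit by variable-slope log-inhibitor regression.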

[1] = system: Streptococcus pneumoniae, R6; assay: Minimal inhibitory concentration assay; assay type: cell-based; conditions: read-out: Minimal Inhibitory Concentrations S. pneumoniae R6
How it was run: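 Microbroth dilution with two-fold serial compound dilutions in broth, incubated aerobically overnight at 37° C. MIC taken as the lowest concentration preventing bacterial growth.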

[2] = system: Enterococcus faecalis, ATCC 33186; assay: Minimal inhibitory concentration assay (microbroth dilution); assay type: cell-based; conditions: Enterococcus faecalis, ATCC33186; read-out: Minimal Inhibitory Concentrations E. faecalis ATCC 33186
How it was run: (§1)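 Visual read-out; MIC is the lowest drug concentration with no bacterial growth after overnight aerobic incubation at 37 °C. Compound was tested in two-fold dilutions starting at 200 μM final, with an inoculum of approximately 10^5 cfu/mL, following CLSI microdilution guidance.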

[3] = system: Staphylococcus aureus, USA 300; assay: Minimal inhibitory concentration assay; assay type: cell-based; conditions: USA300, read-out: Minimal Inhibitory Concentrations S. aureus USA 300
How it was run: as §1

[4] = system: Staphylococcus aureus, USA 300 wherein ClpP is inactivated; assay: Minimal inhibitory concentration assay; assay type: cell-based
How it was run: as §1

| Compound | IC50 (Sa-ClpP) [µM] | MIC [1] [µM] | MIC [2] [µM] | MIC [3] [µM] | Minimal Inhibitory Concentrations S. aureus USA 300 ΔClpP [4] [µM] | IC50 (Sa-ClpP; displacement of FP probe ADEP 2591 from Sa-ClpP, read-out: ADEP Displacement IC50) [µM] |
| --- | --- | --- | --- | --- | --- | --- |
| C[C@@H]1NC(=O)[C@H](C)N(C)C(=O)[C@@H]2CCCN2C(=O)[C@@H](NC(=O)[C@H](Cc2ccccc2)NC(=O)Nc2ccc(OC(F)(F)F)cc2)COC(=O)C2CCCN2C1=O (stereo partly drawn) [Compound 213, (2S)-3-phenyl-2-(3-(4-(trifluoromethoxy)phenyl)ureido)-N-((6S,9S,11aS,17S)-6,9,10-trimethyl-5,8,11,16,20-pentaoxohexadecahydro-1H,5H,16H-dipyrrolo[2,1-c:2′,1′-l][1]oxa[4,7,10,13]tetraazacyclohexadecin-17-yl)propanamide] ({NH(4-OCF3-phenyl)-CO}-FSP[NMeA]A[ξP]; ester 2-C) | 5 ± 0.4 | < 0.2 | 0.39 (≈ 0.307 µg/mL) |  |  |  |
| C[C@@H]1C[C@H]2C(=O)OC[C@H](NC(=O)[C@H](Cc3cc(F)cc(F)c3)NC(=O)Nc3ccc4c(c3)OCO4)C(=O)N3C[C@H](O)C[C@H]3C(=O)N3CCCCC3C(=O)N[C@@H](C)C(=O)N2C1 (stereo partly drawn) [Compound 325, (S)-2-(3-(benzo[d][1,3]dioxol-5-yl)ureido)-3-(3,5-difluorophenyl)-N-((2R,6S,8aR,14aS,16R,20S,23aS)-16-hydroxy-2,6-dimethyl-5,8,14,19,23-pentaoxooctadecahydro-1H,5H,14H,19H-pyrido[2,1-i]dipyrrolo[2,1-c:2′,1′-l][1]oxa[4,7,10,13]tetraazacyclo-hexadecin-20-yl)propanamide] | 4.27 ± 0.2 | 0.078 (≈ 0.0655 µg/mL) |  | 2.5 (≈ 2.1 µg/mL) | >20 |  |
| C[C@@H]1C[C@H]2C(=O)O[C@@H](C)[C@H](NC(=O)[C@H](Cc3cc(F)cc(F)c3)NC(=O)Nc3ccc(F)c(C#N)c3)C(=O)N3CCC[C@H]3C(=O)N3CCCC[C@H]3C(=O)N[C@@H](C)C(=O)N2C1 [Compound 324, (S)-2-(3-(3-cyano-4-fluorophenyl)ureido)-3-(3,5-difluorophenyl)-N-((2R,6S,8aS,14aS,20S,21S,23aS)-2,6,21-trimethyl-5,8,14,19,23-pentaoxooctadecahydro-1H,5H,14H,19H-pyrido[2,1-i]dipyrrolo[2,1-c:2′,1′-l][1]oxa[4,7,10,13]tetraazacyclo-hexadecin-20-yl)propanamide] ({X1-CO}-[Phe(3,5-F2)][aThr]P[Pip]A[Pro(4R-Me)]; ester 2-C) | 7.93 ± 0.3 | 0.625 (≈ 0.523 µg/mL) |  | 0.625 (≈ 0.523 µg/mL) | >20 |  |
| Cc1ccc(NC(=O)N[C@@H](Cc2cc(F)cc(F)c2)C(=O)N[C@@H]2C(=O)N3C[C@H](O)CC3C(=O)N(C)[C@@H](C)C(=O)N[C@@H](C)C(=O)N3C[C@H](C)CC3C(=O)O[C@H]2C)cc1 (stereo partly drawn) [Compound 31, (S)-3-(3,5-difluorophenyl)-N-((2S,6S,9S,11aS,13R,17S,18S,20aS)-13-hydroxy-2,6,9,10,18-pentamethyl-5,8,11,16,20-pentaoxohexadecahydro-1H,5H,16H-dipyrrolo[2,1-c:2′,1′-l][1]oxa[4,7,10,13]tetraazacyclohexadecin-17-yl)-2-(3-(p-tolyl)ureido)propanamide] ({NH(4-Me-phenyl)-CO}-[Phe(3,5-F2)][aThr][ξPro(4R-OH)][NMeA]A[ξPro(4R-Me)]; ester 2-C) | 5.8 ± 0.3 | 0.195 (≈ 0.156 µg/mL) |  | 1.56 (≈ 1.24 µg/mL) | >200 |  |
| Cc1ccc(NC(=O)N[C@@H](Cc2cc(F)cc(F)c2)C(=O)N[C@H]2COC(=O)[C@@H]3C[C@@H](C)CN3C(=O)[C@H](C)NC(=O)C3CCCCN3C(=O)[C@@H]3C[C@@H](O)CN3C2=O)cc1 (stereo partly drawn) [Compound 323, (S)-3-(3,5-difluorophenyl)-N-((2R,6S,8aR,14aS,16R,20S,23aS)-16-hydroxy-2,6-dimethyl-5,8,14,19,23-pentaoxooctadecahydro-1H,5H,14H,19H-pyrido[2,1-i]dipyrrolo[2,1-c:2′,1′-l][1]oxa[4,7,10,13]tetraazacyclohexadecin-20-yl)-2-(3-(p-tolyl)ureido)propanamide] | 9.18 ± 0.4 | 0.078 (≈ 0.0632 µg/mL) |  | 1.25 (≈ 1.01 µg/mL) | >20 |  |
| Cc1ccc(NC(=O)N[C@@H](Cc2cc(F)cc(F)c2)C(=O)N[C@@H]2C(=O)N3CCC[C@H]3C(=O)N(C)[C@@H]([C@H](C)O)C(=O)N[C@@H](C)C(=O)N3C[C@H](C)C[C@H]3C(=O)O[C@H]2C)cc1 [Compound 208, (S)-3-(3,5-difluorophenyl)-N-((2R,6S,9S,11aS,17S,18S,20aS)-9-((S)-1-hydroxyethyl)-2,6,10,18-tetramethyl-5,8,11,16,20-pentaoxohexadecahydro-1H,5H,16H-dipyrrolo[2,1-c:2′,1′-l][1]oxa[4,7,10,13]tetraazacyclohexadecin-17-yl)-2-(3-(p-tolyl)ureido)propanamide] ({NH(4-Me-phenyl)-CO}-[Phe(3,5-F2)][aThr]P[NMeaThr]A[Pro(4R-Me)]; ester 2-C) |  | 0.02 (≈ 0.0162 µg/mL) |  | 0.1 (≈ 0.0812 µg/mL) | 200 | 6.52 ± 0.3 |
| C[C@H]1C[C@H]2C(=O)O[C@@H](C)[C@H](NC(=O)[C@H](Cc3cc(F)cc(F)c3)NC(=O)Nc3ccc(OC(F)(F)F)cc3)C(=O)N3CCC[C@H]3C(=O)N(C)[C@@H]([C@@H](C)O)C(=O)N[C@@H](C)C(=O)N2C1 [Compound 36, (S)-3-(3,5-difluorophenyl)-N-((2S,6S,9S,11aS,17S,18S,20aS)-9-((R)-1-hydroxyethyl)-2,6,10,18-tetramethyl-5,8,11,16,20-pentaoxohexadecahydro-1H,5H,16H-dipyrrolo[2,1-c:2′,1′-l][1]oxa[4,7,10,13]tetraazacyclohexadecin-17-yl)-2-(3-(4-(trifluoromethoxy)phenyl)ureido)propanamide] ({NH(4-OCF3-phenyl)-CO}-[Phe(3,5-F2)][aThr]P[NMeT]A[Pro(4S-Me)]; ester 2-C) | 6.4 ± 0.5 | 0.024 (≈ 0.0212 µg/mL) |  | 0.1 (≈ 0.0882 µg/mL) | 50 |  |
| Cc1ccc(NC(=O)N[C@@H](Cc2cc(F)cc(F)c2)C(=O)N[C@@H]2C(=O)N3CCC[C@H]3C(=O)N(C)[C@@H]([C@@H](C)O)C(=O)N[C@@H](C)C(=O)N3C[C@@H](C)C[C@H]3C(=O)O[C@H]2C)cc1 [Compound 35, (S)-3-(3,5-difluorophenyl)-N-((2S,6S,9S,11aS,17S,18S,20aS)-9-((R)-1-hydroxyethyl)-2,6,10,18-tetramethyl-5,8,11,16,20-pentaoxohexadecahydro-1H,5H,16H-dipyrrolo[2,1-c:2′,1′-l][1]oxa[4,7,10,13]tetraazacyclohexadecin-17-yl)-2-(3-(p-tolyl)ureido)propanamide] ({NH(4-Me-phenyl)-CO}-[Phe(3,5-F2)][aThr]P[NMeT]A[Pro(4S-Me)]; ester 2-C) | 6.6 ± 0.4 | 0.049 (≈ 0.0398 µg/mL) |  | 0.2 (≈ 0.162 µg/mL) | 200 |  |
| Cc1ccc(NC(=O)N[C@@H](Cc2cc(F)cc(F)c2)C(=O)N[C@@H]2C(=O)N3CCC[C@H]3C(=O)N3CCOC[C@H]3C(=O)N[C@@H](C)C(=O)N3C[C@H](C)C[C@H]3C(=O)O[C@H]2C)cc1 [Compound 210, (S)-3-(3,5-difluorophenyl)-2-(3-(p-tolyl)ureido)-N-((6aS,12S,13S,15aS,17R,21S,23aS)-13,17,21-trimethyl-6,11,15,20,23-pentaoxooctadecahydro-6H,11H,15H-[1,4]oxazino[3,4-i]dipyrrolo[2,1-c:2′,1′-l][1]oxa[4,7,10,13]tetraazacyclohexadecin-12-yl)propanamide] ({NH(4-Me-phenyl)-CO}-[Phe(3,5-F2)][aThr]P[Morpholine(3S-CO)]A[Pro(4R-Me)]; ester 2-C) | 7.1 ± 0.2 | 0.002 (≈ 0.00162 µg/mL) |  | 0.006 (≈ 0.00486 µg/mL) | >200 |  |
| C[C@@H]1C[C@H]2C(=O)O[C@@H](C)[C@H](NC(=O)[C@H](Cc3cc(F)cc(F)c3)NC(=O)Nc3ccc(OC(F)(F)F)cc3)C(=O)N3CCC[C@H]3C(=O)N(C)[C@@H]([C@@H](C)O)C(=O)N[C@@H](C)C(=O)N2C1 [Compound 41, (S)-3-(3,5-difluorophenyl)-N-((2R,6S,9S,11aS,17S,18S,20aS)-9-((R)-1-hydroxyethyl)-2,6,10,18-tetramethyl-5,8,11,16,20-pentaoxohexadecahydro-1H,5H,16H-dipyrrolo[2,1-c:2′,1′-l][1]oxa[4,7,10,13]tetraazacyclohexadecin-17-yl)-2-(3-(4-(trifluoromethoxy)phenyl)ureido)propanamide] ({NH(4-OCF3-phenyl)-CO}-[Phe(3,5-F2)][aThr]P[NMeT]A[Pro(4R-Me)]; ester 2-C) | 7.53 ± 0.2 | 0.02 (≈ 0.0176 µg/mL) |  | 0.02 (≈ 0.0176 µg/mL) | 50 |  |
